In patent US11267823B2, “Substituted 1,2,3,3a,4,5,7,9,13,13a-decahydropyrido[1′,2′:4,5]pyrazino[1,2-a]pyrrolo[1,2-c]pyrimidines having HIV integrase inhibitory activity” (Shionogi & Co., Ltd., priority 2005, dated 2022):
Structures can show the parent of a compound that is named as a salt.

These compounds were tested on VSV-g pseudotyped HIV vector that expresses luciferase (PHIV) (assay: microbe, parasite or virus in culture). Details: Human immunodeficiency virus 1, HEK-293T, 48 h, read-out: PHIV IC50.
Format: cell-based
Work on O=C(NCc1ccc(F)cc1F)c1cn2c(c(O)c1=O)C(=O)N1[C@@H](C2)OC[C@@H]2CCCC[C@@H]21 (racemic) [Example Z-35, racemic-(4aR,6aR,14aS)—N-[(2,4-Difluorophenyl)methyl]-12-hydroxy-11,13-dioxo-1,3,4,4a,5,6a,7,11,13,14a-decahydro-2H-pyrido[1′,2′:4,5]pyrazino[1,2-a][3,1]benzoxazine-10-carboxamide] yielded an IC50 of under 10 nM.
Compound O=C(NCc1ccc(F)cc1)c1cn2c(c(O)c1=O)C(=O)N1[C@@H](C2)OC[C@@H]2CCCC[C@@H]21 (racemic) [Example Z-36, racemic-(4R,6aR,14aS)—N-[(4-Fluorophenyl)methyl]-12-hydroxy-11,13-d oxo-1,3,4,4a,5,6a,7,11,13,14a-decahydro-2H-pyrido[1′,2′:4,5]pyrazino[1,2-a][3,1]benzoxazine-10-carboxamide] has an IC50 of under 10 nM.
Compound O=C(NCc1ccc(F)cc1F)c1cn2c(c(O)c1=O)C(=O)N1[C@@H](C2)OC[C@@H]2C[C@@H](c3ccccc3)CC[C@@H]21 (racemic) [Example Z-37, racemic-(3S,4aR,6aR,14aS)—N-[(2,4-Difluorophenyl)methyl]-12-hydroxy-11,13-dioxo-3-phenyl-1,3,4,4a,5,6a,7,11,13,14a-decahydro-2H-pyrido[1′,2′:4,5]pyrazino[1,2-a][3,1]benzoxazine-10-carboxamide] has an IC50 of under 10 nM.
In the case of CC(C)CN1C[C@@H]2CCCC[C@@H]2N2C(=O)c3c(O)c(=O)c(C(=O)NCc4ccc(F)cc4F)cn3C[C@@H]12 (racemic) [Example Z-38, Sodium racemic-(4aS,6aS,14aS)-10-({[(2,4-difluorophenyl)methyl]amino}carbonyl)-6-(2-methylpropyl)-11,13-dioxo-1,2,3,4,4a,5,6,6a,7,11,13,14a-dodecahydropyrido[1′,2′:4,5]pyrazino[1,2-a]quinazolin-12-olate], the IC50 is reported as 10 to 100 nM.
Work on CC(C)CN1C[C@@H]2CCC[C@@H]2N2C(=O)c3c(O)c(=O)c(C(=O)NCc4ccc(F)cc4F)cn3C[C@@H]12 (racemic) [Example Z-49, racemic-(3aS,5aS,13aS)—N-[(2,4-Difluorophenyl)methyl]-11-hydroxy-5-(2-methylpropyl)-10,12-dioxo-2,3,3a,4,5,5a,6,10,12,13a-decahydro-1H-cyclopenta[e]pyrido[1′,2′:4,5]pyrazino[1,2-a]pyrimidine-9-carboxamide] yielded an IC50 of under 10 nM.
With O=C(NCc1ccc(F)cc1F)c1cn2c(c(O)c1=O)C(=O)N1[C@H]3CCCC[C@H]3CN(CCN3CCOCC3)[C@@H]1C2 (racemic) [Example Z-51, racemic-(4aS,6aS,14aS)—N-[(2,4-Difluorophenyl)methyl]-12-hydroxy-6-[2-(4-morpholinyl)ethyl]-11,13-dioxo-1,2,3,4,4a,5,6,6a,7,11,13,14a-dodecahydropyrido-[1′,2′:4,5]pyrazino[1,2-a]quinazoline-10-carboxamide] the IC50 was under 10 nM.
O=C(NCc1ccc(F)cc1F)c1cn2c(c(O)c1=O)C(=O)N1[C@@H](C2)OC[C@@H]2CCC[C@@H]21 (racemic) [Example Z-52, racemic-(3aR,5aR,13aS)—N-[(2,4-Difluorophenyl)methyl]-11-hydroxy-10,12-dioxo-1,2,3,3a,4,5a,6,10,12,13a-decahydrocyclopenta[d]pyrido[1′,2′:4,5]pyrazino[2,1-b][1,3]oxazine-9-carboxamide] showed an IC50 of under 10 nM.
Compound CN1C[C@@H]2CCCC[C@@H]2N2C(=O)c3c(O)c(=O)c(C(=O)NCc4ccc(F)cc4F)cn3C[C@@H]12 (racemic) [Example Z-53, racemic-(4aS,6aS,14aS)—N-[(2,4-Difluorophenyl)methyl]-12-hydroxy-6-methyl-11,13-dioxo-1,2,3,4,4a,5,6,6a,7,11,13,14a-dodecahydropyrido[1′,2′:4,5]pyrazino[1,2-a]quinazoline-10-carboxamide] has an IC50 of under 10 nM.
COCCN1C[C@@H]2CCCC[C@@H]2N2C(=O)c3c(O)c(=O)c(C(=O)NCc4ccc(F)cc4F)cn3C[C@@H]12 (racemic) [Example Z-54, racemic-(4aS,6aS,14aS)—N-[(2,4-Difluorophenyl)methyl]-12-hydroxy-6-[2-(methyloxy)ethyl]11,13-dioxo-1,2,3,4,4a,5,6,6a,7,11,13,14a-dodecahydropyrido[1′,2′:4,5]pyrazino[1,2-a]quinazoline-10-carboxamide] gave an IC50 of under 10 nM.
With CC(=O)NCCN1C[C@@H]2CCCC[C@@H]2N2C(=O)c3c(O)c(=O)c(C(=O)NCc4ccc(F)cc4F)cn3C[C@@H]12 (racemic) [Example Z-55] the IC50 was 10 to 100 nM.
C[C@@H]1CO[C@H]2Cn3cc(C(=O)NCc4ccc(F)cc4F)c(=O)c(O)c3C(=O)N12 [Example Z-1, (3R,11aS)—N-[(2,4-Difluorophenyl)methyl]-6-hydroxy-3-methyl-5,7-dioxo-2,3,5,7,11,11a-hexahydro[1,3]oxazolo[3,2-a]pyrido[1,2-d]pyrazine-8-carboxamide sodium salt] showed an IC50 of under 10 nM.
Work on O=C(NCc1ccc(F)cc1F)c1cn2c(c(O)c1=O)C(=O)N1C[C@@H]3CCCN3[C@H]1C2 [Example Z-2, (4aR,13aS)—N-[(2,4-Difluorophenyl)methyl]-10-hydroxy-9,11-dioxo-2,3,4a,5,9,11,13,13a-octahydro-1H-pyrido[1,2-a]pyrrolo[1′,2′:3,4]imidazo[1,2-d]pyrazine-8-carboxamide] yielded an IC50 of under 10 nM.
For O=C(NCc1ccc(F)cc1F)c1cn2c(c(O)c1=O)C(=O)N1CC[C@@H]3CCCN3[C@@H]1C2 [Example Z-3, (3aS,13aS)—N-[(2,4-Difluorophenyl)methyl]-8-hydroxy-7,9-dioxo-1,2,3,3a,4,5,7,9,13,13a-decahydropyrido-[1′,2′:4,5]pyrazino[1,2-a]pyrrolo[1,2-c]pyrimidine-10-carboxamide], the IC50 was under 10 nM.
O=C(NCc1ccc(F)cc1F)c1cn2c(c(O)c1=O)C(=O)N1C[C@H]3CCCN3[C@@H]1C2 [Example Z-4, (4aS,13aR)—N-[(2,4-Difluorophenyl)methyl]-10-hydroxy-9,11-dioxo-2,3,4a,5,9,11,13,13a-octahydro-1H-pyrido[1,2-a]pyrrolo[1′,2′:3,4]imidazo[1,2-d]pyrazine-8-carboxamide sodium salt] showed an IC50 of under 10 nM.
Work on O=C(NCc1ccc(F)cc1)c1cn2c(c(O)c1=O)C(=O)N1C[C@H]3CCCN3[C@@H]1C2 [Example Z-5, (4aS,13aR)—N-[(4-Fluorophenyl)methyl]-10-hydroxy-9,11-dioxo-2,3,4a,5,9,11,13,13a-octahydro-1H-pyrido[1,2-a]pyrrolo[1′,2′:3,4]imidazo[1,2-d]pyrazine-8-carboxamide] yielded an IC50 of under 10 nM.
O=C(NCc1ccc(F)cc1F)c1cn2c(c(O)c1=O)C(=O)N1[C@@H](Cc3ccccc3)CO[C@@H]1C2 [Example Z-6, (3S,11aR)—N-[(2,4-Difluorophenyl)methyl]-6-hydroxy-5,7-dioxo-3-(phenylmethyl)-2,3,5,7,11,11a-hexahydro[1,3]oxazolo[3,2-a]pyrido[1,2-d]pyrazine-8-carboxamide] gave an IC50 of under 10 nM.
For O=C(NCc1ccc(F)cc1)c1cn2c(c(O)c1=O)C(=O)N1CC[C@@H]3CCCN3[C@@H]1C2 [Example Z-7, (3aS,13aS)—N-[(4-Fluorophenyl)methyl]-8-hydroxy-7,9-dioxo-1,2,3,3a,4,5,7,9,13,13a-decahydropyrido[1′,2′:4,5]pyrazino[1,2-a]pyrrolo[1,2-c]pyrimidine-10-carboxamide], the IC50 was under 10 nM.
For CC[C@H](C)[C@H]1CO[C@@H]2Cn3cc(C(=O)NCc4ccc(F)cc4F)c(=O)c(O)c3C(=O)N12 [Example Z-8, (3S,11aR)—N-[(2,4-Difluorophenyl)methyl]-6-hydroxy-3-[(1S)-1-methylpropyl]-5,7-dioxo-2,3,5,7,11,11a-hexahydro[1,3]oxazolo[3,2-a]pyrido[1,2-d]pyrazine-8-carboxamide sodium salt], the IC50 was 10 to 100 nM.
C[C@H]1CO[C@@H]2Cn3cc(C(=O)NCc4ccc(F)cc4F)c(=O)c(O)c3C(=O)N12 [Example Z-9, (3S,11aR)—N-[(2,4-Difluorophenyl)methyl]-6-hydroxy-3-methyl-5,7-dioxo-2,3,5,7,11,11a-hexahydro[1,3]oxazolo[3,2-a]pyrido[1,2-d]pyrazine-8-carboxamide sodium salt] gave an IC50 of under 10 nM.
C[C@H]1CO[C@@H]2Cn3cc(C(=O)NCc4ccc(F)cc4)c(=O)c(O)c3C(=O)N12 [Example Z-10, (3S,11aR)—N-[(4-fluorophenyl)methyl]-6-hydroxy-3-methyl-5,7-dioxo-2,3,5,7,11,11a-hexahydro[1,3]oxazolo[3,2-a]pyrido[1,2-d]pyrazine-8-carboxamide] gave an IC50 of under 10 nM.
CC(C)(C)[C@H]1CO[C@@H]2Cn3cc(C(=O)NCc4ccc(F)cc4F)c(=O)c(O)c3C(=O)N21 [Example Z-11, (3S,11aR)—N-[(2,4-Difluorophenyl)methyl]-3-(1,1-dimethylethyl)-6-hydroxy-5,7-dioxo-2,3,5,7,11,11a-hexahydro[1,3]oxazolo[3,2-a]pyrido[1,2-d]pyrazine-8-carboxamide] showed an IC50 of under 10 nM.
CC(C)(C)[C@H]1CO[C@@H]2Cn3cc(C(=O)NCc4ccc(F)cc4)c(=O)c(O)c3C(=O)N21 [Example Z-12, (3S,11aR)-3-(1,1-Dimethylethyl)-N-[(4-fluorophenyl)methyl]-6-hydroxy-5,7-dioxo-2,3,5,7,11,11a-hexahydro[1,3]oxazolo[3,2-a]pyrido[1,2-d]pyrazine-8-carboxamide] gave an IC50 of under 10 nM.
In the case of O=C(NCc1ccc(F)cc1F)c1cn2c(c(O)c1=O)C(=O)N1[C@@H](c3ccccc3)CO[C@@H]1C2 [Example Z-13, (3S,11aR)—N-[(2,4-Difluorophenyl)methyl]-6-hydroxy-5,7-dioxo-3-phenyl-2,3,5,7,11,11a-hexahydro[1,3]oxazolo[3,2-a]pyrido[1,2-d]pyrazine-8-carboxamide], the IC50 is reported as 10 to 100 nM.
For O=C(NCc1ccc(F)cc1F)c1cn2c(c(O)c1=O)C(=O)N1[C@@H](CO)CO[C@@H]1C2 [Example Z-14, (3S,11aR)—N-[(2,4-Difluorophenyl)methyl]-6-hydroxy-3-(hydroxymethyl)-5,7-dioxo-2,3,5,7,11,11a-hexahydro[1,3]oxazolo[3,2-a]pyrido[1,2-d]pyrazine-8-carboxamide], the IC50 was 10 to 100 nM.
